This assay addresses Retinol-binding protein 4 (Homo sapiens, UniProt P02753). As to the kind of experiment: Binding Assay: Streptavidin (20 ul) (10 ug/ml Streptavidin type II (Wako Pure Chemical Industries, Ltd.), 10 mM Tris-HCl (pH 7.5), 10 mM NaCl) was added to a 384 well black plate (Nunc MaxiSorp, Thermo Fisher Scientific Inc.), and the plate was subjected to centrifugation (1000 rpm, 1 min) and coated overnight at 4 C. The plate was washed twice with PBST (PBS, 0.05% Tween 20, 100 ul/well) and blocked with 25% Block Ace (Snow Brand Milk Products Co., Ltd., PBS, 100 ul/well). The plate was subjected to centrifugation (1000 rpm, 1 min) and incubated at room temperature for 4 hr or overnight at 4 C. The plate was washed twice with PBST (PBS, 0.05% Tween 20, 100 ul/well), and biotinylate human TTR (stock solution concentration 1.0 mg/ml) diluted 750-fold with PBST was added at 20 ul/well. The plate was subjected to centrifugation (1000 rpm, 1 min) and stood still at room temperature for 1.5 hr or overnight at 4 C. The plate was washed 3 times with PBST (100 ul/well).

Each structure is given as a SMILES string.

`CC(C)(C)c1ccccc1N1CCN(C(=O)c2nc[nH]n2)CC1`: the IC50 amounted to 15 nM.

The values above are taken from ChEMBL document CHEMBL3639268, “Derivatives of N-acyl-N‚Ä=-phenylpiperazine useful (inter alia) for the prophylaxis or treatment of diabetes” (2014).
